Each structure is given as a SMILES string. Where two headings read alike, the source gives them in different places.

As usually defined, the IC50 is the concentration at which inhibition is half-maximal.

Assay [1] relates to A549 cells. Kind of assay: Cytotoxicity (antiproliferation assay) in A549. It counts as cell-based, human.
Another assay deals with A2780AD cells. Kind of assay: Cytotoxicity (antiproliferation assay) in A2780AD (pGp overexpressing). It counts as cell-based, human. The following applies: for IC50: read-out: IC50 A2780AD; for R/S (resistance index): A2780AD versus A2780.
The test system of the next assay is A2780 cells. Briefly: Cytotoxicity (antiproliferation assay) in A2780. It counts as cell-based, human.
Assay [2] has as its target T1, maytansine site of tubulin (Bos taurus, UniProt Q6B856).
T1 construct: Purified calf brain tubulin and chemicals were obtained as previously described; from tissue; host or cells: calf brain
Kind of assay: biochemical. The class given is binding, calf.

For assay [3], the system named is A549 cells. Kind of assay: Effects on cellular microtubules by immunofluorescence microscopy. It counts as cell-based, human. The note with it: fluorescence microscopy; for concentration at which the microtubule destabilizing effect is observed in interphasic cells: interphase; for concentration at which the microtubule destabilizing effect is observed in mitotic cells: mitosis.
Excerpt: To do so, we performed fluorescence microscopy using A549 cells.
The effect of these compounds on the microtubule network and mitotic spindle was characterized in A549 tumor cells by fluorescence microscopy. […] Cells were immunostained for A)–I) α‐tubulin or A’)–I’) DNA, and A’’)–I’’) the images obtained were merged (tubulin in green and DNA in magenta). A)–A’’) Interphase cell treated with DMSO; notice the regular microtubule network evenly distributed in the cytoplasm. B)–B’’) Control metaphase cell with a normally distributed bipolar mitotic spindle in which all chromosomes are positioned in the metaphase plate. […] All images are shown at the same scale; scale bar: 10 μm.
In interphase the microtubule network covers the whole cytoplasm, while in dividing cells during metaphase there are regular bipolar spindles that allow the correct positioning and segregation of chromosomes in the subsequent division steps.
Indirect immunofluorescence images were obtained using A549 cells plated at a density of 130,000 cells/ml onto 12mm

In assay [4] the target is T2, tubulin (Bos taurus, UniProt Q6B856).
T2 construct: Purified calf brain tubulin and chemicals were obtained as previously described; from tissue; host or cells: calf brain
Kind of assay: Inhibition of tubulin assembly (turbidity time courses). The class given is biochemical, calf. The following applies: 25 μM tubulin in GAB, 27.5 μM compound, stoichiometric ratio.

Assay [5] concerns tubulin. The arrangement: method as in PMID 21043240. The note with it: compared with maytansine; cited from earlier work.
Setting [6] is: A549 cell line, read-out: IC50 A549.
Where [7] appears, read: A2780AD cell line, pGp overexpressing.
The mark [8] stands for this setting: A2780 cell line, read-out: IC50 A2780.
The mark [9] stands for this setting: competition against Fc maytansine.
Where [10] appears, read: competition against Fc maytansine, read-out: K d.
Where [11] appears, read: Homo sapiens, A549 cell line, read-out: IC50 A549.
[12] abbreviates: Homo sapiens, A2780AD cell line, pGp overexpressing.
[13] abbreviates: Homo sapiens, A2780 cell line, read-out: IC50 A2780.
[14] abbreviates: Homo sapiens, A549, read-out: IC50 A549.
[15] abbreviates: Homo sapiens, A2780, read-out: IC50 A2780.

T2 sequence (Q6B856 whole entry): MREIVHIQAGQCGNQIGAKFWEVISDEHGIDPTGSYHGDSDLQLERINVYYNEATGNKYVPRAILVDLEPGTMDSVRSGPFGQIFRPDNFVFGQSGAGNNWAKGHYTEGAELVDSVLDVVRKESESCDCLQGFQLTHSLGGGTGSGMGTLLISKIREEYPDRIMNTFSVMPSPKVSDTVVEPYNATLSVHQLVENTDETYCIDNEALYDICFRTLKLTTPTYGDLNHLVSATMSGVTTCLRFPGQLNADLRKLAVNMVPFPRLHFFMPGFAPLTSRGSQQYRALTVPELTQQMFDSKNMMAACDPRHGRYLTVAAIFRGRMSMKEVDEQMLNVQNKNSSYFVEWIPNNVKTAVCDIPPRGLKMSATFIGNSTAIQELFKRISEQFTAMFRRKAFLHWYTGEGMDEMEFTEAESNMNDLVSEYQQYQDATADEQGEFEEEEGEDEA
T2 sequence (P81947 whole entry partner): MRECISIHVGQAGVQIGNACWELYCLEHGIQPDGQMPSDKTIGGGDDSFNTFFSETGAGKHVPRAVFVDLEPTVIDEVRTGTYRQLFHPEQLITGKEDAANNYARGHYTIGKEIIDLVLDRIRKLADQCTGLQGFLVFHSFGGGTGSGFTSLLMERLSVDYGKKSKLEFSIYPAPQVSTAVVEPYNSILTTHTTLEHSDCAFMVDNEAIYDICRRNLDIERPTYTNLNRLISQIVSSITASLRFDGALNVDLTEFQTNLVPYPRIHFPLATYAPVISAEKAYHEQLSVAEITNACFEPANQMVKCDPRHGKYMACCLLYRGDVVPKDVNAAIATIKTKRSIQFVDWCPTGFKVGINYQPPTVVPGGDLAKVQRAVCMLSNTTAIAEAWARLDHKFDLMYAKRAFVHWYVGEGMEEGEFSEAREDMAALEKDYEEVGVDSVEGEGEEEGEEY
T1 sequence (Q6B856 whole entry): as the sequence (Q6B856 whole entry) above
T1 sequence (P81947 whole entry partner): as the sequence (P81947 whole entry partner) above

Take `COc1cc2cc(c1Cl)N(C)C(=O)C[C@H](OC(=O)c1ccccc1)[C@]1(C)O[C@H]1[C@H](C)[C@@H]1C[C@@](O)(NC(=O)O1)[C@H](OC)/C=C/C=C(\C)C2` [4 a]: the IC50 in the assay on A549 cells [1] (setting [6]) is 0.24 ± 0.03 nM; with A2780AD cells (setting [7]), 11 ± 1 nM; in the assay on A2780 cells (setting [8]), 0.11 ± 0.01 nM. The “R/S (resistance index)” value in the assay on A2780AD cells worked out at 100. In addition, in assay [2] (setting [9]), the “Mean K b” value is given as 2.0±0.×10^7 M^−1. In addition, in assay [2] (setting [10]), the Kd came out at 51 ± 3 nM. Also, the “concentration at which the microtubule destabilizing effect is observed in interphasic cells” value (from here on “concentration … in interphasic cells”) in the assay on A549 cells [3] stood at 10 nM. Further, the “concentration at which the microtubule destabilizing effect is observed in mitotic cells” value (“concentration … in mitotic cells” for short) in the assay with A549 cells [3] is 5 nM.

As for `C#CCCCCC(=O)OC1CC(=O)N(C)c2cc(cc(OC)c2Cl)CC(C)=CC=CC(OC)C2=CC(OC(=O)N2)C(C)C2OC12C` (centres unmarked) [5 c], the IC50 in the assay on A549 cells [1] (setting [6]) was 320 ± 40 nM; in the assay with A2780AD cells (setting [7]), greater than 7960 nM; in the assay on A2780 cells (setting [8]), 225 ± 15 nM. Besides, the “Mean K b” value in assay [2] (setting [9]) is recorded as 5.6±0.4×10^5 M^−1. In assay [2] (setting [10]), the Kd worked out at 1800 ± 120 nM. The “Inhibition of tubulin assembly” value at tubulin [4] is “mild”.

Regarding `COc1cc2cc(c1Cl)N(C)C(=O)CC(OC(=O)c1ccccc1)C1(C)OC1C(C)C1C=C(C(OC)C=CC=C(C)C2)N(C(=O)c2ccccc2)C(=O)O1` (centres unmarked) [7 a], the IC50 is 47 ± 6 nM with A549 cells [1] (setting [6]) and 3500 ± 320 nM in the assay on A2780AD cells (setting [7]). Also, the “Mean K b” value in assay [2] (setting [9]) was 5.0±0.5×10^5 M^−1. Also, the Kd in assay [2] (setting [10]) stood at 2000 ± 200 nM. On tubulin [4], the “Inhibition of tubulin assembly” value is “mild”.

On to `COc1cc2cc(c1Cl)N(C)C(=O)CC(O)C1(C)OC1C(C)C1CC(O)(NC(=O)O1)C(OC)/C=C/C=C(\C)C2` (centres unmarked) [1 b, Maytansinol], for which the values for the IC50 in the assay with A549 cells [1] (setting [11]), in the assay with A2780AD cells (setting [12]) and in the assay on A2780 cells (setting [13]) were 60 ± 3 nM, 1460 ± 148 nM and 23.8 ± 1.65 nM, respectively. The “inhibitory activity on tubulin polymerization” value with tubulin [5] was “weaker inhibitory activity on tubulin polymerization than maytansine”. This compound also had a Kd in assay [2] of 780 ± 40 nM. Further, the “Mean K b” value in assay [2] (setting [9]) is recorded as 1.30±0.06×10^6 M^−1. At tubulin [4], the “Inhibition of tubulin assembly” value was “noticeable effect at stoichiometric concentrations”. For the same compound, in the assay on A549 cells [3], the “concentration … in interphasic cells” value is on record as 100 nM. In the assay on A549 cells [3], the “concentration … in mitotic cells” value is 50 nM.

Turning to `COc1cc2cc(c1Cl)N(C)C(=O)CC(OC(C)=O)C1(C)OC1C(C)C1CC(O)(NC(=O)O1)C(OC)C=CC=C(C)C2` (centres unmarked) [4 b], the IC50 was 1.2 ± 0.3 nM with A549 cells [1] (setting [6]), 20 ± 1 nM in the assay on A2780AD cells (setting [7]) and 0.25 ± 0.01 nM with A2780 cells (setting [8]). In addition, the “R/S (resistance index)” value in the assay with A2780AD cells came to 80. Moreover, the “Mean K b” value in assay [2] (setting [9]) was 9±1×10^7 M^−1. The Kd in assay [2] (setting [10]) is 11 ± 1 nM.

`C#CCCCCC(=O)OC1CC(=O)N(C)c2cc(cc(OC)c2Cl)CC(C)=CC=CC(OC)C2(O)CC(OC(=O)N2)C(C)C2OC12C` (centres unmarked) [4 c]: the IC50 was 0.07 ± 0.008 nM in the assay on A549 cells [1] (setting [6]), 4.7 ± 0.6 nM in the assay with A2780AD cells (setting [7]) and 0.033 ± 0.003 nM in the assay on A2780 cells (setting [8]). In the assay with A2780AD cells, the “R/S (resistance index)” value stood at 142. Besides, the “Mean K b” value in assay [2] (setting [9]) is reported as 5.4±0.5×10^7 M^−1. In assay [2] (setting [10]), the Kd was 20 ± 2 nM.

For the compound `COc1cc2cc(c1Cl)N(C)C(=O)CC(OC(=O)c1ccccc1)C1(C)OC1C(C)C1C=C(NC(=O)O1)C(OC)C=CC=C(C)C2` (centres unmarked) [5 a], the IC50 with A549 cells [1] (setting [6]) is greater than 570 nM; with A2780AD cells (setting [7]) it was 2630 ± 187 nM; in the assay on A2780 cells (setting [8]), 338 ± 4.65 nM. For the same compound, the “Mean K b” value in assay [2] (setting [9]) was 9.2±0.3×10^5 M^−1. In addition, the Kd in assay [2] (setting [10]) amounted to 1090 ± 40 nM. Moreover, at tubulin [4], the “Inhibition of tubulin assembly” value is “strong inhibitors that completely abolished microtubule assembly”.

Turning to `COc1cc2cc(c1Cl)N(C)C(=O)CC(O)C1(C)OC1C(C)C1C=C(C(OC)C=CC=C(C)C2)N(C(=O)c2ccccc2)C(=O)O1` (centres unmarked) [6 a], the IC50 in the assay on A549 cells [1] (setting [6]) is greater than 1030 nM; with A2780AD cells (setting [7]), 13500 ± 623 nM; in the assay on A2780 cells (setting [8]) it was 2090 ± 99 nM. In addition, in assay [2] (setting [9]), the “Mean K b” value is reported as 6±2×10^5 M^−1. Further, at tubulin [4], the “Inhibition of tubulin assembly” value was “strong inhibitors that completely abolished microtubule assembly”.

Consider `COc1cc2cc(c1Cl)N(C)C(=O)CC(O)C1(C)OC1C(C)C1C=C(NC(=O)O1)C(OC)C=CC=C(C)C2` (centres unmarked) [Compound 3], for which the IC50 with A549 cells [1] (setting [14]) is 28 ± 2 nM; in the assay with A2780AD cells (Homo sapiens, A2780AD) it was greater than 19700 nM; in the assay on A2780 cells (setting [15]) it was 74 ± 4 nM. The “Mean K b” value in assay [2] (setting [9]) was 1.20±0.03×10^6 M^−1. In addition, in assay [2] (setting [10]), the Kd came to 830 ± 20 nM. Moreover, at tubulin [4], the “Inhibition of tubulin assembly” value is listed as “mild”.

As to `COc1cc2cc(c1Cl)N(C)C(=O)CC(O)C1(C)OC1C(C)C=CC(=O)C(OC)C=CC=C(C)C2` (centres unmarked) [Compound 2], the IC50 with A549 cells [1] (setting [14]) stood at 15 ± 2 nM; in the assay with A2780AD cells (Homo sapiens, A2780AD) it was 981 ± 201 nM; in the assay on A2780 cells (setting [15]), 9.64 ± 0.97 nM. The “Mean K b” value in assay [2] (setting [9]) is 1.42±0.08×10^6 M^−1. Moreover, the Kd in assay [2] (setting [10]) stood at 720 ± 50 nM. Besides, the “Inhibition of tubulin assembly” value on tubulin [4] was “weak inhibition”.

In the case of `COc1cc2cc(c1Cl)N(C)C(=O)CC(OC(C)=O)C1(C)OC1C(C)C1C=C(NC(=O)O1)C(OC)C=CC=C(C)C2` (centres unmarked) [5 b], the IC50 with A549 cells [1] (setting [6]) was 190 ± 40 nM; in the assay with A2780AD cells (setting [7]) it was greater than 6160 nM; in the assay on A2780 cells (setting [8]), 130 ± 20 nM. The “Mean K b” value in assay [2] (setting [9]) is on record as 1.17±0.04×10^6 M^−1. For the same compound, the Kd in assay [2] (setting [10]) turned out to be 860 ± 30 nM. The “Inhibition of tubulin assembly” value at tubulin [4] is reported as “strong inhibitors that completely abolished microtubule assembly”.

For the compound `COc1cc2cc(c1Cl)N(C)C(=O)C[C@H](OC(=O)[C@H](C)N(C)C(C)=O)[C@]1(C)O[C@H]1[C@H](C)[C@@H]1C[C@@](O)(NC(=O)O1)[C@H](OC)/C=C/C=C(\C)C2` [1 a, Maytansine, reference compound], the results for the IC50 in the assay with A549 cells [1] (setting [11]), in the assay on A2780AD cells (setting [12]) and in the assay with A2780 cells (setting [13]) were 0.278 ± 0.04 nM, 19.5 ± 1.14 nM and 0.31 ± 0.02 nM, respectively. Also, in assay [2], the Kd was 14 ± 2 nM. Moreover, in assay [2] (setting [9]), the “Mean K b” value is 9.0±1.3×10^7 M^−1. Moreover, the “Inhibition of tubulin assembly” value at tubulin [4] was “completely abolishes tubulin polymerization”. Moreover, the “concentration … in interphasic cells” value with A549 cells [3] was determined as 5 nM. In addition, in the assay on A549 cells [3], the “concentration … in mitotic cells” value came out at 5 nM.
